{
  "source": "patent US7985415B2",
  "about": "“Medical devices employing novel polymers” (Rutgers, The State University of New Jersey, priority 1997, dated 2011)",
  "test_system": "coronary arteries",
  "assay": "Swine stent model: coated stents implanted in coronary arteries, light microscopy and morphometry",
  "conditions": "for Stenosis (%): (Neointimal Area/IEL Area)x100; for EEL Area / IEL Area / Intimal Area / Intimal Thick. / Lumen Area: PolySAID II coating alone or with 20% added drug by weight",
  "from_the_text": "A total of 8 stents were implanted in the coronary arteries of 3 miniswine for 28 days. The stent implants were Polymerix [nicknamed MARGI] 15 mm in length with an unexpanded diameter of 1.6 mm.\nAll stents were processed for light microscopic evaluation. Before processing, the vessels and hearts were x-rayed to locate and assess stent placement. For processing, the stented vessel segments were dehydrated in a graded series of ethanol and embedded in methylmethacrylate plastic. After polymerization, two to three millimeter sections were sawed from the proximal, mid and distal portions of each stent. Sections from the stents were cut on a rotary microtome at four to five microns, mounted and stained with hematoxylin and eosin and elastic Van Gieson stains. All sections were examined by light microscopy for the presence of inflammation, thrombus, neointimal formation, vessel wall injury and potential localized toxic effects associated with drug-coated stents.\nMyocardial sections were taken from the anterior, lateral, posterior and septal walls of the left ventricle distal to the stent and from the apical region of the left ventricle. To determine localized affects of the polymer and/or drug, the myocardium was also sampled beneath the area of stent placement. All sections were cut at 4-6 microns; mounted and stained with hematoxylin and eosin and examined for the presence of infarct, thromboembolus and inflammation.\nA vessel injury score was calculated according to the Schwartz method. The cross-sectional areas (external elastic lamina [EEL], internal elastic lamina [IEL] and lumen) of each section were measured with digital morphometry. Neointimal thickness was measured as the distance from the inner surface of each stent strut to the luminal border. Percent area stenosis was calculated with the formula [(Neointimal Area/IEL Area)×100]. Ordinal data was also collected for fibrin deposition and inflammation and hemorrhage around the stent struts and percent endothelialization of the lumen surfaces. Values are expressed as mean±SD. Mean variables were compared between the groups with the use of ANOVA with Fishers Post Hoc Correction for analysis of the data. A value of P≦0.05 was considered statistically significant.",
  "key": {"[1]": {"conditions": "miniswine coronary arteries, stents 28 days"}},
  "data": [
    {"smiles": "CC(=O)O[C@H]1C(=O)[C@@]2(C)[C@H]([C@H](OC(=O)c3ccccc3)[C@]3(O)C[C@H](OC(=O)[C@H](O)[C@@H](NC(=O)c4ccccc4)c4ccccc4)C(C)=C1C3(C)C)[C@]1(OC(C)=O)CO[C@@H]1C[C@@H]2O", "note": "[Paclitaxel, paclitaxel]", "values": [
      {"measurement": "% Struts (Fibrin)", "setting": "[1]", "value": 100, "unit": "%"},
      {"measurement": "% Struts Hemorrhage", "setting": "[1]", "value": 100, "unit": "%"},
      {"measurement": "% Struts with underlying medial necrosis", "setting": "[1]", "value": "8.67 ± 3.51", "unit": "%"},
      {"measurement": "Ave Inflammation score", "setting": "[1]", "value": 2.0},
      {"measurement": "light microscopy findings (vessel healing, neointima)", "setting": "[1]", "value": "malapposition with underlying medial necrosis with extensive accumulation of fibrin, hemorrhage, and inflammatory cells around the stent struts"},
      {"measurement": "Stenosis (%)", "setting": "[1]", "value": "27.21 ± 17.11", "unit": "%"},
      {"measurement": "EEL Area", "setting": "[1]", "value": "8.41 ± 2.95", "unit": "mm2"},
      {"measurement": "IEL Area", "setting": "[1]", "value": "6.84 ± 2.56", "unit": "mm2"},
      {"measurement": "Intimal Area", "setting": "[1]", "value": "2.14 ± 2.10", "unit": "mm2"},
      {"measurement": "Intimal Thick.", "setting": "[1]", "value": "0.05 ± 0.01", "unit": "mm"},
      {"measurement": "Lumen Area", "setting": "[1]", "value": "4.70 ± 0.64", "unit": "mm2"},
      {"measurement": "Injury Score", "setting": "miniswine coronary arteries, stents 28 days, Schwartz method", "value": "0.35 ± 0.48"}
    ]},
    {"smiles": "CO[C@H]1C[C@@H]2CC[C@@H](C)[C@@](O)(O2)C(=O)C(=O)N2CCCC[C@H]2C(=O)O[C@H]([C@H](C)C[C@@H]2CC[C@@H](O)[C@H](OC)C2)CC(=O)[C@H](C)/C=C(\\C)[C@@H](O)[C@@H](OC)C(=O)[C@H](C)C[C@H](C)/C=C/C=C/C=C/1C", "note": "[Sirolimus, sirolimus]", "values": [
      {"measurement": "light microscopy findings (vessel healing, neointima)", "setting": "in vivo", "value": "less neointimal growth and were more healed than those coated with paclitaxel"},
      {"measurement": "Stenosis (%)", "setting": "[1]", "value": "20.31 ± 10.1", "unit": "%"},
      {"measurement": "EEL Area", "setting": "[1]", "value": "6.07 ± 0.61", "unit": "mm2"},
      {"measurement": "IEL Area", "setting": "[1]", "value": "4.78 ± 0.39", "unit": "mm2"},
      {"measurement": "Intimal Area", "setting": "[1]", "value": "0.96 ± .50 mm2"},
      {"measurement": "Intimal Thick.", "setting": "[1]", "value": "0.10 ± 0.05", "unit": "mm"},
      {"measurement": "Lumen Area", "setting": "[1]", "value": "3.81 ± 0.62", "unit": "mm2"},
      {"measurement": "% Struts (Fibrin)", "setting": "miniswine, in vivo, 28 days", "value": "57.78 ± 43.47", "unit": "%"},
      {"measurement": "% Struts Hemorrhage", "setting": "miniswine, in vivo, 28 days", "value": "28.33 ± 30.14", "unit": "%"},
      {"measurement": "% Struts with underlying medial necrosis", "setting": "miniswine, in vivo, 28 days", "value": "0.68 ± 0.68", "unit": "%"},
      {"measurement": "Ave Inflammation score", "setting": "miniswine, in vivo, 28 days", "value": "2.3 ± 0.58"},
      {"measurement": "Injury Score", "setting": "miniswine, in vivo, 28 days", "value": "0.45 ± 0.69"}
    ]}
  ]
}
